Data published in PubChem BioAssay (NCI).
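48-hour exposure; five concentrations; linearly interpolated endpoints. At the TGI there is no net growth.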

Tests used:
Test in all cases: NCI-60 cell line screen, 48 h
786-0 renal = tested on: 786-0 renal
A549 NSCLC = tested on: A549 NSCLC
ACHN renal = tested on: ACHN renal
BT-549 breast = tested on: BT-549 breast
CAKI-1 renal = tested on: CAKI-1 renal
CCRF-CEM leukemia = tested on: CCRF-CEM leukemia
COLO 205 colon = tested on: COLO 205 colon
DU-145 prostate = tested on: DU-145 prostate
EKVX NSCLC = tested on: EKVX NSCLC
HCC-2998 colon = tested on: HCC-2998 colon
HCT-116 colon = tested on: HCT-116 colon
HCT-15 colon = tested on: HCT-15 colon
HOP-62 NSCLC = tested on: HOP-62 NSCLC
HOP-92 NSCLC = tested on: HOP-92 NSCLC
HT29 colon = tested on: HT29 colon
IGROV1 ovarian = tested on: IGROV1 ovarian
K-562 leukemia = tested on: K-562 leukemia
KM12 colon = tested on: KM12 colon
LOX IMVI melanoma = tested on: LOX IMVI melanoma
M14 melanoma = tested on: M14 melanoma
MALME-3M melanoma = tested on: MALME-3M melanoma
MCF7 breast = tested on: MCF7 breast
MDA-MB-231 breast = tested on: MDA-MB-231 breast
MDA-MB-435 = tested on: MDA-MB-435
MDA-N = tested on: MDA-N
MOLT-4 leukemia = tested on: MOLT-4 leukemia
NCI-H226 lung = tested on: NCI-H226 lung
NCI-H23 lung = tested on: NCI-H23 lung
NCI-H460 lung = tested on: NCI-H460 lung
NCI-H522 lung = tested on: NCI-H522 lung
NCI/ADR-RES ovarian = tested on: NCI/ADR-RES ovarian
OVCAR-3 ovarian = tested on: OVCAR-3 ovarian
OVCAR-4 ovarian = tested on: OVCAR-4 ovarian
OVCAR-5 ovarian = tested on: OVCAR-5 ovarian
OVCAR-8 ovarian = tested on: OVCAR-8 ovarian
PC-3 prostate = tested on: PC-3 prostate
RPMI-8226 leukemia = tested on: RPMI-8226 leukemia
RXF 393 renal = tested on: RXF 393 renal
SF-295 CNS = tested on: SF-295 CNS
SF-539 CNS = tested on: SF-539 CNS
SK-MEL-2 melanoma = tested on: SK-MEL-2 melanoma
SK-MEL-28 melanoma = tested on: SK-MEL-28 melanoma
SK-MEL-5 melanoma = tested on: SK-MEL-5 melanoma
SK-OV-3 ovarian = tested on: SK-OV-3 ovarian
SN12C renal = tested on: SN12C renal
SNB-19 CNS = tested on: SNB-19 CNS
SNB-75 CNS = tested on: SNB-75 CNS
SR leukemia = tested on: SR leukemia
SW-620 colon = tested on: SW-620 colon
T-47D breast = tested on: T-47D breast
TK-10 renal = tested on: TK-10 renal
U251 CNS = tested on: U251 CNS
UACC-257 melanoma = tested on: UACC-257 melanoma
UACC-62 melanoma = tested on: UACC-62 melanoma
UO-31 renal = tested on: UO-31 renal
A498 renal = tested on: A498 renal
HL-60(TB) leukemia = tested on: HL-60(TB) leukemia
SF-268 CNS = tested on: SF-268 CNS

CNC(=O)N(CCC#N)CCN(CCN(C(=O)NC)c1ccccc1)C(=O)NC
TGI (786-0 renal): > 100000 nM | TGI (A549 NSCLC): > 100 µM | TGI (ACHN renal): > 100000 nM | TGI (BT-549 breast): > 100 µM | TGI (CAKI-1 renal): > 100 µM | TGI (CCRF-CEM leukemia): > 100 µM | TGI (COLO 205 colon): > 100 µM | TGI (DU-145 prostate): > 100 µM | TGI (EKVX NSCLC): > 100 µM | TGI (HCC-2998 colon): > 100000 nM | TGI (HCT-116 colon): > 100000 nM | TGI (HCT-15 colon): > 100 µM | TGI (HOP-62 NSCLC): > 100 µM | TGI (HOP-92 NSCLC): > 100 µM | TGI (HT29 colon): > 100000 nM | TGI (IGROV1 ovarian): > 100 µM | TGI (K-562 leukemia): > 100 µM | TGI (KM12 colon): > 100000 nM | TGI (LOX IMVI melanoma): > 100 µM | TGI (M14 melanoma): > 100000 nM | TGI (MALME-3M melanoma): > 100 µM | TGI (MCF7 breast): > 100000 nM | TGI (MDA-MB-231 breast): > 100 µM | TGI (MDA-MB-435): > 100000 nM | TGI (MDA-N): > 100000 nM | TGI (MOLT-4 leukemia): > 100 µM | TGI (NCI-H226 lung): > 100 µM | TGI (NCI-H23 lung): > 100 µM | TGI (NCI-H460 lung): > 100 µM | TGI (NCI-H522 lung): > 100000 nM | TGI (NCI/ADR-RES ovarian): > 100 µM | TGI (OVCAR-3 ovarian): > 100 µM | TGI (OVCAR-4 ovarian): > 100000 nM | TGI (OVCAR-5 ovarian): > 100 µM | TGI (OVCAR-8 ovarian): > 100 µM | TGI (PC-3 prostate): > 100 µM | TGI (RPMI-8226 leukemia): > 100 µM | TGI (RXF 393 renal): > 100 µM | TGI (SF-295 CNS): > 100 µM | TGI (SF-539 CNS): > 100 µM | TGI (SK-MEL-2 melanoma): > 100 µM | TGI (SK-MEL-28 melanoma): > 100 µM | TGI (SK-MEL-5 melanoma): > 100000 nM | TGI (SK-OV-3 ovarian): > 100 µM | TGI (SN12C renal): > 100 µM | TGI (SNB-19 CNS): > 100000 nM | TGI (SNB-75 CNS): > 100 µM | TGI (SR leukemia): > 100 µM | TGI (SW-620 colon): > 100 µM | TGI (T-47D breast): > 100 µM | TGI (TK-10 renal): > 100 µM | TGI (U251 CNS): > 100 µM | TGI (UACC-257 melanoma): > 100000 nM | TGI (UACC-62 melanoma): > 100000 nM | TGI (UO-31 renal): > 100000 nM

CN1c2ccccc2C2c3c(O)ccc(O)c3C=C([N+](=O)[O-])C21 (stereo not given)
TGI (786-0 renal): 2130 nM | TGI (A498 renal): 5.47 µM | TGI (A549 NSCLC): 3.57 µM | TGI (ACHN renal): 1970 nM | TGI (BT-549 breast): 13.6 µM | TGI (CAKI-1 renal): 5.16 µM | TGI (CCRF-CEM leukemia): > 100 µM | TGI (COLO 205 colon): 8.55 µM | TGI (EKVX NSCLC): 7.63 µM | TGI (HCC-2998 colon): 2800 nM | TGI (HCT-116 colon): 651 nM | TGI (HCT-15 colon): 6.41 µM | TGI (HL-60(TB) leukemia): 3.17 µM | TGI (HOP-62 NSCLC): 5.96 µM | TGI (HOP-92 NSCLC): 5.84 µM | TGI (HT29 colon): 568 nM | TGI (IGROV1 ovarian): 5.87 µM | TGI (K-562 leukemia): > 100 µM | TGI (KM12 colon): 1820 nM | TGI (M14 melanoma): 1440 nM | TGI (MCF7 breast): 346 nM | TGI (MDA-MB-231 breast): 7.44 µM | TGI (MDA-MB-435): 366 nM | TGI (MDA-N): 1500 nM | TGI (MOLT-4 leukemia): > 27.4 µM | TGI (NCI-H226 lung): > 92.9 µM | TGI (NCI-H23 lung): 5.61 µM | TGI (NCI-H460 lung): 6.02 µM | TGI (NCI-H522 lung): 170 nM | TGI (NCI/ADR-RES ovarian): > 20 µM | TGI (OVCAR-4 ovarian): 2810 nM | TGI (OVCAR-5 ovarian): 5.87 µM | TGI (PC-3 prostate): 4.79 µM | TGI (RXF 393 renal): 15.5 µM | TGI (SF-268 CNS): 6.54 µM | TGI (SF-295 CNS): 8.29 µM | TGI (SF-539 CNS): 4.45 µM | TGI (SK-MEL-2 melanoma): 7.08 µM | TGI (SK-MEL-28 melanoma): 11.3 µM | TGI (SK-MEL-5 melanoma): 1890 nM | TGI (SK-OV-3 ovarian): 13.5 µM | TGI (SNB-19 CNS): 2030 nM | TGI (SNB-75 CNS): > 24.2 µM | TGI (SR leukemia): > 24.8 µM | TGI (T-47D breast): > 100 µM | TGI (TK-10 renal): 23.3 µM | TGI (U251 CNS): 4.84 µM | TGI (UACC-257 melanoma): 516 nM | TGI (UACC-62 melanoma): 2660 nM | TGI (UO-31 renal): 2100 nM
